# Where “and” joins values, the source holds several entries; their conditions need not be identical. Equal entries are not always repeated. Where two headings read alike, the source gives them in different places.
# Experiments:
# [1] = molecular target: T1, p53-Y220C DBD (Homo sapiens, UniProt P04637, M133L/N239Y/N268D/V203A/Y220C); set-up: method as in Boeckler et al. (24); details: data taken from the literature; ref Boeckler et al. (24); read-out: ITC KD; cited from earlier work
# T1 construct: Stabilized p53-Y220C DBD (residues 94–312) was expressed and purified as previously described; made in house
# [2] = molecular target: T2, p53-Y220C DNA-binding domain (DBD) (Homo sapiens, UniProt P04637, M133L/N239Y/N268D/V203A/Y220C); assay: Differential scanning fluorimetry (DSF), stabilization of p53-Y220C DBD; details: 8 μM stabilized p53-Y220C DBD, 25 mM KPi pH 7.2, 5% DMSO, triplicate; for DSF ΔTm at 125 μM: compound 125 μM; for ΔTm at 125 µM: pH 7.2, compound 125 μM
# T2 construct: Stabilized p53-Y220C DBD (residues 94–312) was expressed and purified as previously described; made in house
# Protocol: We tested […]083 (1) and analogues 2-6 for their stabilization of the p53-Y220C DNA-binding domain (DBD) using differential scanning fluorimetry (DSF; Table 1). The N-2,2,2-trifluoroethyl substituted carbazoles 4 and 6 increased stability of the p53-Y220C DBD by 1.2 K at a compound concentration of 125 μM, showing a clear improvement over their N-ethyl substituted counterparts […]083 (1) and 5 (ΔTm = 0.8 K and ΔTm = 0.6 K, respectively). […] DSF was performed as described.[26] Briefly, melting temperatures (Tm) were determined using 8 μM protein (stabilized p53-Y220C DBD) and 10 × SYPRO orange (Life Technologies) in a 25 mM KPi (pH 7.2), 150 mM NaCl, and 1 mM TCEP assay buffer at a final DMSO concentration of 5% (v/v). ΔTm values were calculated as ΔTm= Tm (protein + compound) - Tm (protein)). All samples were measured in triplicate.
# [3] = molecular target: T1, p53-Y220C DBD; assay: Isothermal titration calorimetry (ITC); assay type: binding; details: for Kd: 50 μM protein, 25 mM KPi pH 7.2, 150 mM NaCl, 1 mM TCEP, 5% DMSO; for increase in affinity (ITC KD) compared to the nonfluorinated parent compounds (1 and 5): 4 vs 1, 6 vs 5; for improvement of free energy of binding compared with parent compounds: at 293 K, vs PhiKan083 (1) and 5
# Protocol: We tested PhiKan083 (1) and analogues 2–6 for their stabilization of the p53-Y220C DNA-binding domain (DBD) using differential scanning fluorimetry (DSF; Table 1). The N-2,2,2-trifluoroethyl substituted carbazoles 4 and 6 increased stability of the p53-Y220C DBD by 1.2 K at a compound concentration of 125 μM, showing a clear improvement over their N-ethyl substituted counterparts PhiKan083 (1) and 5 (ΔTm = 0.8 K and ΔTm = 0.6 K, respectively).
# ITC experiments were conducted as described.[26] Samples for the cell unit contained 50 μM protein in a 25 mM KPi (pH 7.2), 150 mM NaCl, 1 mM TCEP, and 5% (v/v) DMSO assay buffer. The syringe contained 2–5 mM compound in the same assay buffer.
Structure (SMILES),DSF ΔTm at 125 μM [2],ΔTm at 125 µM [2],Kd [3],ligand efficiency (LE) [3],increase in affinity (ITC KD) compared to the nonfluorinated parent compounds (1 and 5) [3],improvement of free energy of binding compared with parent compounds [3],drop in affinity due to additional methyl group at the amine ([3]; 5 vs 1),Kd [1]
"CCn1c2ccccc2c2cc(CNC)ccc21 [Compound 1, 1-(9-ethyl-9H-carbazole-3-yl)-N-methylmethanamine]",,,,,,,,124 µM
"CNCc1ccc2c(c1)c1ccccc1n2CCF [Compound 2, 1-(9-(2-Fluoroethyl)-9H-carbazol-3-yl)-N-methylmethanamine]",0.4 K,0.3 °C,138 µM,,,,,
"CNCc1ccc2c(c1)c1ccccc1n2CC(F)F [Compound 3, 1-(9-(2,2-Difluoroethyl)-9H-carbazol-3-yl)-N-methylmethanamine]",0.3 K,0.4 °C,101 µM,,,,,
"CCn1c2ccccc2c2cc(CN(C)C)ccc21 [Compound 5, 1-(9-Ethyl-9H-carbazol-3-yl)-N,N-dimethylmethanamine]",,0.6 °C,169 µM,,,,30%,

# The next lines start with results.
DSF ΔTm at 125 μM [2],ΔTm at 125 µM [2],Kd [3],ligand efficiency (LE) [3],increase in affinity (ITC KD) compared to the nonfluorinated parent compounds (1 and 5) [3],improvement of free energy of binding compared with parent compounds [3],drop in affinity due to additional methyl group at the amine ([3]; 5 vs 1),Structure (SMILES),Kd [1]
,1.2 °C,28.3 µM and 28 µM,0.3 kcal mol^–1 atom^–1,5 fold,approximately −0.9 kcal/mol,,"CNCc1ccc2c(c1)c1ccccc1n2CC(F)(F)F [Compound 4, 1-(9-(2,2,2-Trifluoroethyl)-9H-carbazol-3-yl)-N-methylmethanamine]",
,1.2 °C,37.2 µM and 37 µM,0.3 kcal mol^–1 atom^–1,5 fold,approximately −0.9 kcal/mol,,"CN(C)Cc1ccc2c(c1)c1ccccc1n2CC(F)(F)F [Compound 6, 1-(9-(2,2,2-Trifluoroethyl)-9H-carbazol-3-yl)-N,N-dimethylmethanamine]",
